Assay results as given in patent US20230073777A1, “CYCLIC-AMP RESPONSE ELEMENT BINDING PROTEIN (CBP) AND/OR ADENOVIRAL E1A BINDING PROTEIN OF 300 KDA (P300) DEGRADATION COMPOUNDS AND METHODS OF USE” (CULLGEN (SHANGHAI), INC., priority 2019, published 2023).
Like-named read-outs stand apart in the source and are kept apart here.

Assays:
LNCaP cells = test: LNCaP cell viability assay (CellTiter-Glo); assay type: cell-based; details: Homo sapiens, 72 h, LNCaP prostate cancer cell viability inhibition, 3 days
Method in brief: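 LNCaP cells, 5000/well, exposed to compounds in 12-point 3-fold serial dilution (top 10 μM) for 3 days. Viability by CellTiter-Glo luminescence, normalized to untreated cells; IC50 by least-squares nonlinear regression.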

P300 = P300 (Homo sapiens, UniProt Q09472); test: Immunoblotting of P300 protein levels in LNCaP or 22RV1 cells; assay type: cell-based; parameters: LNCaP or 22RV1 cells that express CBP/P300 proteins were treated with GNE-781 or the bivalent compounds; endogenous in cells; host or cells: LNCaP (clone FGC) or 22RV1 cells; details: read-out: Degradation (10 nM)
Method in brief: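 LNCaP or 22RV1 cells treated with compounds for indicated hours, DMSO as negative control. RIPA lysates resolved by SDS-PAGE and immunoblotted for P300 or CBP, tubulin or vinculin as loading control; chemiluminescent bands quantitated.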

[1] = percentage of inhibition of p300 at 10 nM (Table 3)
[2] = percentage of inhibition of p300 at 10 nM (Table 2)

Chain of P300 (Q09472 whole entry): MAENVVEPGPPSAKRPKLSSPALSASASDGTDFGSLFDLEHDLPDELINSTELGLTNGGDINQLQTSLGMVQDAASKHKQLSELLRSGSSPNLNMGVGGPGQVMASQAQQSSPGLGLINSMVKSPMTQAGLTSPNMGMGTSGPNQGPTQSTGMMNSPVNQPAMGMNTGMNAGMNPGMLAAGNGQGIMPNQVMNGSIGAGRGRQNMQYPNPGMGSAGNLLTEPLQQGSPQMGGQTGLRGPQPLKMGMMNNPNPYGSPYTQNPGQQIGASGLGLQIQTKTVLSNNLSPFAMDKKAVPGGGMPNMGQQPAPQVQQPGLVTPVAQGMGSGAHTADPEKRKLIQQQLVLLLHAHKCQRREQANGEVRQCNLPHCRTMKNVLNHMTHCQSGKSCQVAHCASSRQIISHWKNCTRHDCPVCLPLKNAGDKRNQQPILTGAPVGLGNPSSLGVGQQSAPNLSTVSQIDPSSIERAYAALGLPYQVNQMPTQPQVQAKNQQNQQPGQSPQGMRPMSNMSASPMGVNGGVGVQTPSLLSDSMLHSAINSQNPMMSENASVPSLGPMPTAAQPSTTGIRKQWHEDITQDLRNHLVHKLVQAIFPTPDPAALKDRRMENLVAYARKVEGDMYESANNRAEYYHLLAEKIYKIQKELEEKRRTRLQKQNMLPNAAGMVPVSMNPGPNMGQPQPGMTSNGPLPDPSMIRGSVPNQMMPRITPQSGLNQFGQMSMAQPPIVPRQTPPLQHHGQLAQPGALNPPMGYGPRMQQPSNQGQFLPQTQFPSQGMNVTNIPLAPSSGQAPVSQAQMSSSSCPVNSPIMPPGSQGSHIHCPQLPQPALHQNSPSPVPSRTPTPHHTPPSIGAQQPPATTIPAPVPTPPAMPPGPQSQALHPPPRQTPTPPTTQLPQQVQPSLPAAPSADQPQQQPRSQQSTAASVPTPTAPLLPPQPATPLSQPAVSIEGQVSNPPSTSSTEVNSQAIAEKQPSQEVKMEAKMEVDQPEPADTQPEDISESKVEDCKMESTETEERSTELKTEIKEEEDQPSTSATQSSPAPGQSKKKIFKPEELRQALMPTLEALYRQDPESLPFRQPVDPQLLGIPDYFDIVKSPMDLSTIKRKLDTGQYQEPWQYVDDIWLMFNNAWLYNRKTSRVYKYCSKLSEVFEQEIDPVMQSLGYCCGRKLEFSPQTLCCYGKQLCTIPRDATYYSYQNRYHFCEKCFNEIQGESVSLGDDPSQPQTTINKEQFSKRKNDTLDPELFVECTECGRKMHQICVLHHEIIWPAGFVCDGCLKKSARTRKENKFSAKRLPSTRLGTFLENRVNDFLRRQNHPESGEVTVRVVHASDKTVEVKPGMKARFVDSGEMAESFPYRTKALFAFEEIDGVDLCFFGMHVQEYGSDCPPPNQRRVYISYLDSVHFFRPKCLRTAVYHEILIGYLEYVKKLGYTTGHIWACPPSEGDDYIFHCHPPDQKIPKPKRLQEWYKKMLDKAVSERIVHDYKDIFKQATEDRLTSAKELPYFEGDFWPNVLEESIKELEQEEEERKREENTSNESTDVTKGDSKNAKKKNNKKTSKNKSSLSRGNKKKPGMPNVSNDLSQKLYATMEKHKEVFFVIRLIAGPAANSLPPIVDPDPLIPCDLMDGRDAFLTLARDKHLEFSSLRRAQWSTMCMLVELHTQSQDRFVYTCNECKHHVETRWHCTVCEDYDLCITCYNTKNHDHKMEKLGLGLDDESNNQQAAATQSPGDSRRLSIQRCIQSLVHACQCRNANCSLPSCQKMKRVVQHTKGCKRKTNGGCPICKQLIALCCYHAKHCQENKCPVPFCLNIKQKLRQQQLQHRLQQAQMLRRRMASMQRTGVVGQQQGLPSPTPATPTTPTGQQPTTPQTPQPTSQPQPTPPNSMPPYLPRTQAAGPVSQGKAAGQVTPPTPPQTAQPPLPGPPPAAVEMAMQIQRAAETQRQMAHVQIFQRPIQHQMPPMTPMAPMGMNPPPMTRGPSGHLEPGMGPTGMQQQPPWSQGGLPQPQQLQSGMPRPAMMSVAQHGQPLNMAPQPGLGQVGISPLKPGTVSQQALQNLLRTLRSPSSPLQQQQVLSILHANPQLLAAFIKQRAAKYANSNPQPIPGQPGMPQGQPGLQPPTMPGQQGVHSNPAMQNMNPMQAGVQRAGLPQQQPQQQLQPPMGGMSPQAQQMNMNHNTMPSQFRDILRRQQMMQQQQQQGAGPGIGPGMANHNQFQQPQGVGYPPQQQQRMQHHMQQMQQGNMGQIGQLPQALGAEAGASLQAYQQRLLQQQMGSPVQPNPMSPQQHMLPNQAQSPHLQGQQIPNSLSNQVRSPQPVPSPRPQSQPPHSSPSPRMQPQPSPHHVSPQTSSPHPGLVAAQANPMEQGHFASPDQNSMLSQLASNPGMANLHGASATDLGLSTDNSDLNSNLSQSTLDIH

Row | SMILES | IC50 (LNCaP cells; CellTiter-Glo (Table 3)) | inhibition at 0.01 µM (P300; [1]) | IC50 (LNCaP cells; CellTiter-Glo (Table 2)) | inhibition at 0.01 µM (P300; [2])
1 | CC(=O)N1CCc2c(c(N3CCCc4cc(-c5cnn(C)c5)c(C(F)F)cc43)nn2C2CCN(C(=O)CN3CCC(CNc4cccc5c4C(=O)N(C4CCC(=O)NC4=O)C5=O)CC3)CC2)C1 (stereo not shown) [P-123, 4-(((1-(2-(4-(5-Acetyl-3-(7-(difluoromethyl)-6-(1-methyl-1H-pyrazol-4-yl)-3,4-dihydroquinolin-1(2H)-yl)-4,5,6,7-tetrahydro-1H-pyrazolo[4,3-c]pyridin-1-yl)piperidin-1-yl)-2-oxoethyl)piperidin-4-yl)methyl)amino)-2-(2,6-dioxopiperidin-3-yl)isoindoline-1,3-dione] | 20.3 nM | > 80% | – | –
2 | CNC(=O)N1CCc2c(c(N3CCCc4cc(-c5cnn(C)c5)c(C(F)F)cc43)nn2C2CCN(C(=O)CCCCCn3c(=O)n(C4CCC(=O)NC4=O)c4ccccc43)CC2)C1 (stereo not shown) [P-105, 3-(7-(Difluoromethyl)-6-(1-methyl-1H-pyrazol-4-yl)-3,4-dihydroquinolin-1(2H)-yl)-1-(1-(6-(3-(2,6-dioxopiperidin-3-yl)-2-oxo-2,3-dihydro-1H-benzo[d]imidazol-1-yl)hexanoyl)piperidin-4-yl)-N-methyl-1,4,6,7-tetrahydro-5H-pyrazolo[4,3-c]pyridine-5-carboxamide] | 44.5 nM | 50 to 80% | – | –
3 | CNC(=O)N1CCc2c(c(N3CCCc4cc(-c5cnn(CC(=O)NCCOCCOCCOCCNc6cccc7c6C(=O)N(C6CCC(=O)NC6=O)C7=O)c5)c(C(F)F)cc43)nn2C2CCOCC2)C1 (stereo not shown) [P-023, 3-(7-(Difluoromethyl)-6-(1-(14-((2-(2,6-dioxopiperidin-3-yl)-1,3-dioxoisoindolin-4-yl)amino)-2-oxo-6,9,12-trioxa-3-azatetradecyl)-1H-pyrazol-4-yl)-3,4-dihydroquinolin-1(2H)-yl)-N-methyl-1-(tetrahydro-2H-pyran-4-yl)-1,4,6,7-tetrahydro-5H-pyrazolo[4,3-c]pyridine-5-carboxamide] | – | – | 357 nM | < 20%
4 | CC(=O)N1CCc2c(c(N3CCCc4cc(-c5cnn(C)c5)c(C(F)F)cc43)nn2C2CCN(C(=O)CCCC3CN(c4cccc5c4C(=O)N(C4CCC(=O)NC4=O)C5=O)C3)CC2)C1 (stereo not shown) [P-146, 4-(3-(4-(4-(5-acetyl-3-(7-(difluoromethyl)-6-(1-methyl-1H-pyrazol-4-yl)-3,4-dihydroquinolin-1(2H)-yl)-4,5,6,7-tetrahydro-1H-pyrazolo[4,3-c]pyridin-1-yl)piperidin-1-yl)-4-oxobutyl)azetidin-1-yl)-2-(2,6-dioxopiperidin-3-yl)isoindoline-1,3-dione] | 2 nM | > 80% | – | –
5 | CC(=O)N1CCc2c(c(N3CCCc4cc(-c5cnn(C)c5)c(C(F)F)cc43)nn2C2CCN(C(=O)CN3CC(CCNc4cccc5c4C(=O)N(C4CCC(=O)NC4=O)C5=O)C3)CC2)C1 (stereo not shown) [P-170, 4-((2-(1-(2-(4-(5-Acetyl-3-(7-(difluoromethyl)-6-(1-methyl-1H-pyrazol-4-yl)-3,4-dihydroquinolin-1(2H)-yl)-4,5,6,7-tetrahydro-1H-pyrazolo[4,3-c]pyridin-1-yl)piperidin-1-yl)-2-oxoethyl)azetidin-3-yl)ethyl)amino)-2-(2,6-dioxopiperidin-3-yl)isoindoline-1,3-dione] | 32.6 nM | 20 to 50% | – | –
6 | CC(=O)N1CCc2c(c(N3CCCc4cc(-c5cnn(C)c5)c(C(F)F)cc43)nn2C2CCN(C(=O)CCCCCCNc3cccc4c3n(C)c(=O)n4C3CCC(=O)NC3=O)CC2)C1 (stereo not shown) [P-111, 3-(4-((7-(4-(5-acetyl-3-(7-(difluoromethyl)-6-(1-methyl-1H-pyrazol-4-yl)-3,4-dihydroquinolin-1(2H)-yl)-4,5,6,7-tetrahydro-1H-pyrazolo[4,3-c]pyridin-1-yl)piperidin-1-yl)-7-oxoheptyl)amino)-3-methyl-2-oxo-2,3-dihydro-1H-benzo[d]imidazol-1-yl)piperidine-2,6-dione] | 7.6 nM | > 80% | – | –
7 | CNC(=O)N1CCc2c(c(N3CCCc4cc(-c5cnn(C)c5)c(C(F)F)cc43)nn2C2CCN(C(=O)CCCCCCc3cccc4c3C(=O)N(C3CCC(=O)NC3=O)C4)CC2)C1 (stereo not shown) [P-087, 3-(7-(Difluoromethyl)-6-(1-methyl-1H-pyrazol-4-yl)-3,4-dihydroquinolin-1(2H)-yl)-1-(1-(7-(2-(2,6-dioxopiperidin-3-yl)-3-oxoisoindolin-4-yl)heptanoyl)piperidin-4-yl)-N-methyl-1,4,6,7-tetrahydro-5H-pyrazolo[4,3-c]pyridine-5-carboxamide] | 12.6 nM | 20 to 50% | – | –
8 | CNC(=O)N1CCc2c(c(N3CCCc4cc(-c5cnn(CC(=O)NCCOCCNc6ccc7c(c6)C(=O)N(C6CCC(=O)NC6=O)C7=O)c5)c(C(F)F)cc43)nn2C2CCOCC2)C1 (stereo not shown) [P-028, 3-(7-(Difluoromethyl)-6-(1-(2-((2-(2-((2-(2,6-dioxopiperidin-3-yl)-1,3-dioxoisoindolin-5-yl)amino)ethoxy)ethyl)amino)-2-oxoethyl)-1H-pyrazol-4-yl)-3,4-dihydroquinolin-1(2H)-yl)-N-methyl-1-(tetrahydro-2H-pyran-4-yl)-1,4,6,7-tetrahydro-5H-pyrazolo[4,3-c]pyridine-5-carboxamide] | – | – | 1040 nM | < 20%
9 | CNC(=O)N1CCc2c(c(N3CCCc4cc(-c5cnn(C)c5)c(C(F)F)cc43)nn2C2CCN(C(=O)CCOCCOCCOCCOCCNc3ccc4c(c3)C(=O)N(C3CCC(=O)NC3=O)C4=O)CC2)C1 (stereo not shown) [P-011, 3-(7-(Difluoromethyl)-6-(1-methyl-1H-pyrazol-4-yl)-3,4-dihydroquinolin-1(2H)-yl)-1-(1-(1-((2-(2,6-dioxopiperidin-3-yl)-1,3-dioxoisoindolin-5-yl)amino)-3,6,9,12-tetraoxapentadecan-15-oyl)piperidin-4-yl)-N-methyl-1,4,6,7-tetrahydro-5H-pyrazolo[4,3-c]pyridine-5-carboxamide] | – | – | 163 nM | 20 to 50%
10 | CNC(=O)N1CCc2c(c(N3CCCc4cc(-c5cnn(C)c5)c(C(F)F)cc43)nn2C2CCN(C(=O)CCCCC#Cc3cccc4c3CN(C3CCC(=O)NC3=O)C4=O)CC2)C1 (stereo not shown) [P-093, 3-(7-(difluoromethyl)-6-(1-methyl-1H-pyrazol-4-yl)-3,4-dihydroquinolin-1(2H)-yl)-1-(1-(7-(2-(2,6-dioxopiperidin-3-yl)-1-oxoisoindolin-4-yl)hept-6-ynoyl)piperidin-4-yl)-N-methyl-1,4,6,7-tetrahydro-5H-pyrazolo[4,3-c]pyridine-5-carboxamide] | 25.2 nM | > 80% | – | –
11 | CNC(=O)N1CCc2c(c(N3CCCc4cc(-c5cnn(CC(=O)NCCOCCOCCOCCOCCNc6ccc7c(c6)C(=O)N(C6CCC(=O)NC6=O)C7=O)c5)c(C(F)F)cc43)nn2C2CCOCC2)C1 (stereo not shown) [P-031, 3-(7-(Difluoromethyl)-6-(1-(17-((2-(2,6-dioxopiperidin-3-yl)-1,3-dioxoisoindolin-5-yl)amino)-2-oxo-6,9,12,15-tetraoxa-3-azaheptadecyl)-1H-pyrazol-4-yl)-3,4-dihydroquinolin-1(2H)-yl)-N-methyl-1-(tetrahydro-2H-pyran-4-yl)-1,4,6,7-tetrahydro-5H-pyrazolo[4,3-c]pyridine-5-carboxamide] | – | – | 566 nM | < 20%
